Read-outs that look alike come from different tables or passages of the source.
Tests used:
WDR5 = WDR5 (Homo sapiens (Human), UniProt P61964); assay: Surface Plasmon Resonance (SPR) assay, KD and residence time; type: binding; settings: for Kd: read-out: WDR5 binding affinity (KD)
MV4-11 cells = assay: Cell proliferation assay (ATPlite); type: cell-based; settings: Homo sapiens, MV4-11, 120 h; MV-411 cells, five days; read-out: In vitro whole cell potency in MV-411 cells, (IC50)
In short: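 Read-out is ATP-based luminescence (ATPlite) after 5 days of culture at 37° C under 5% CO2. Compounds were given as 10-point dilutions starting at 10 μM to MV4-11 cells, seeded at 1,000 cells/well in Alpha-MEM plus 10% FBS.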

[1] = surface plasmon resonance (SPR)
[2] = surface plasmon resonance (SPR) assay

SMILES	Kd (WDR5; [1])	IC50 (MV4-11 cells)	residence time (WDR5; τ=1/koff, Table 2, read-out: Residence Time (t, min))	Kd (WDR5; [2])
C[C@@H]1CN(c2nccc(-c3cc(NC(=O)c4c[nH]c(=O)cc4C(F)(F)F)c(N4CCN(C)[C@H](C)C4)cc3F)n2)CCO1 (stereo in doubt) [Example 593, N-[4-fluoro-2-[(3R)-3,4-dimethylpiperazin-1-yl]-5-[2-[(2R)-2-methylmorpholin-4-yl]pyrimidin-4-yl]phenyl]-6-oxo-4-(trifluoromethyl)-1H-pyridine-3-carboxamide]	0.737 nM	14 nM	–	–
CC1CN(c2nccc(-c3cc(NC(=O)c4c[nH]c(=O)cc4C(F)(F)F)c(N4C[C@@H](C)N(C)[C@@H](C)C4)cc3F)n2)CCO1 (stereo in doubt) [Example 594, N-[4-fluoro-5-[2-[(2R)-2-methylmorpholin-4-yl]pyrimidin-4-yl]-2-[(3S,5R)-3,4,5-trimethylpiperazin-1-yl]phenyl]-6-oxo-4-(trifluoromethyl)-1H-pyridine-3-carboxamide]	0.712 nM	19 nM	–	–
CC1CN(c2cc(F)c(-c3csc(N4CCOCC4)n3)cc2NC(=O)c2c[nH]c(=O)cc2C(F)(F)F)CCN1C (stereo in doubt) [Example 617, N-[4-fluoro-5-(2-morpholin-4-yl-1,3-thiazol-4-yl)-2-[(3R)-3,4-dimethylpiperazin-1-yl]phenyl]-6-oxo-4-(trifluoromethyl)-1H-pyridine-3-carboxamide]	558000 nM	36 nM	–	–
C[C@@H]1CN(c2cc(F)c(-c3cnc(N4CCOCC4)nc3)cc2NC(=O)c2c[nH]nc2C(F)(F)F)C[C@H](C)N1C [Example 42, N-[4-fluoro-5-(2-morpholin-4-ylpyrimidin-5-yl)-2-[(3R,5S)-3,4,5-trimethylpiperazin-1-yl]phenyl]-3-(trifluoromethyl)-1H-pyrazole-4-carboxamide]	–	428 nM	3.45 min	–
C[C@@H]1CN(c2cc(F)c(-c3ccc4c(c3)OCO4)cc2NC(=O)c2c[nH]c(=O)cc2C(F)(F)F)C[C@H](C)N1C [Example 63, N-[5-(1,3-benzodioxol-5-yl)-4-fluoro-2-[(3R,5S)-3,4,5-trimethylpiperazin-1-yl]phenyl]-6-oxo-4-(trifluoromethyl)-1H-pyridine-3-carboxamide]	–	206 nM	–	0.694 nM
CC(=O)Nc1ccc(-c2cc(NC(=O)c3c[nH]c(=O)cc3C(F)(F)F)c(N3C[C@@H](C)N(C)[C@@H](C)C3)cc2F)cn1 [Example 64, N-[5-(6-acetamidopyridin-3-yl)-4-fluoro-2-[(3R,5S)-3,4,5-trimethylpiperazin-1-yl]phenyl]-6-oxo-4-(trifluoromethyl)-1H-pyridine-3-carboxamide]	–	366 nM	–	0.199 nM
COCCOc1ccc(-c2cc(NC(=O)c3c[nH]c(=O)cc3C(F)(F)F)c(N3C[C@@H](C)N(C)[C@@H](C)C3)cc2F)cc1 [Example 90, N-[4-fluoro-5-[4-(2-methoxyethoxy)phenyl]-2-[(3R,5S)-3,4,5-trimethylpiperazin-1-yl]phenyl]-6-oxo-4-(trifluoromethyl)-1H-pyridine-3-carboxamide]	–	120 nM	–	0.441 nM
CC(C)COc1ncc(-c2cc(NC(=O)c3c[nH]c(=O)cc3C(F)(F)F)c(N3C[C@@H](C)N(C)[C@@H](C)C3)cc2F)cc1Cl [Example 91, N-[5-[5-chloro-6-(2-methylpropoxy)pyridin-3-yl]-4-fluoro-2-[(3R,5S)-3,4,5-trimethylpiperazin-1-yl]phenyl]-6-oxo-4-(trifluoromethyl)-1H-pyridine-3-carboxamide]	–	257 nM	–	4.47 nM
C[C@@H]1CN(c2cc(F)c(-c3ccc(OCC4CC4)c(Cl)c3)cc2NC(=O)c2c[nH]c(=O)cc2C(F)(F)F)C[C@H](C)N1C [Example 92, N-[5-[3-chloro-4-(cyclopropylmethoxy)phenyl]-4-fluoro-2-[(3R,5S)-3,4,5-trimethylpiperazin-1-yl]phenyl]-6-oxo-4-(trifluoromethyl)-1H-pyridine-3-carboxamide]	–	71 nM	–	10.9 nM
C[C@@H]1CN(c2cc(F)c(-c3cnc(N4CCOCC4)nc3)cc2NC(=O)c2cn(C)c(=O)cc2C(F)(F)F)C[C@H](C)N1C [Example 93, N-[4-fluoro-5-(2-morpholin-4-ylpyrimidin-5-yl)-2-[(3R,5S)-3,4,5-trimethylpiperazin-1-yl]phenyl]-1-methyl-6-oxo-4-(trifluoromethyl)pyridine-3-carboxamide]	–	48 nM	–	2.17 nM
C[C@@H]1CN(c2ncc(-c3cc(NC(=O)c4c[nH]c(=O)cc4C(F)(F)F)c(N4C[C@@H](C)N(C)[C@@H](C)C4)cc3F)cn2)C[C@H](C)O1 [Example 161, N-[4-fluoro-5-[2-[(2R,6S)-2,6-dimethylmorpholin-4-yl]pyrimidin-5-yl]-2-[(3S,5R)-3,4,5-trimethylpiperazin-1-yl]phenyl]-6-oxo-4-(trifluoromethyl)-1H-pyridine-3-carboxamide]	–	28 nM	–	1 nM
C[C@@H]1CN(c2cc(F)c(-c3cnc(N(C)C)c(F)c3)cc2NC(=O)c2c[nH]c(=O)cc2C(F)(F)F)C[C@H](C)N1C [Example 221, N-[5-[6-(dimethylamino)-5-fluoropyridin-3-yl]-4-fluoro-2-[(3R,5S)-3,4,5-trimethylpiperazin-1-yl]phenyl]-6-oxo-4-(trifluoromethyl)-1H-pyridine-3-carboxamide]	–	120 nM	–	0.769 nM
C[C@@H]1CN(c2cc(F)c(C3=CCN(c4ncccn4)CC3)cc2NC(=O)c2c[nH]c(=O)cc2C(F)(F)F)C[C@H](C)N1C [Example 245, N-[4-fluoro-5-(1-pyrimidin-2-yl-3,6-dihydro-2H-pyridin-4-yl)-2-[(3R,5S)-3,4,5-trimethylpiperazin-1-yl]phenyl]-6-oxo-4-(trifluoromethyl)-1H-pyridine-3-carboxamide]	–	125 nM	–	1.39 nM
C[C@@H]1CN(c2cc(F)c(-c3ccc(N4CCOCC4)c(F)c3)cc2NC(=O)c2cn(C)c(=O)cc2C(F)(F)F)C[C@H](C)N1C [Example 247, N-[4-fluoro-5-(3-fluoro-4-morpholin-4-ylphenyl)-2-[(3R,5S)-3,4,5-trimethylpiperazin-1-yl]phenyl]-1-methyl-6-oxo-4-(trifluoromethyl)pyridine-3-carboxamide]	–	854 nM	–	5.16 nM
C[C@@H]1CN(c2cc(F)c(-c3cnc(N4CCOCC4)nc3)cc2NC(=O)c2ccc(F)cc2C(F)(F)F)C[C@H](C)N1C [Example 248, 4-fluoro-N-[4-fluoro-5-(2-morpholin-4-ylpyrimidin-5-yl)-2-[(3R,5S)-3,4,5-trimethylpiperazin-1-yl]phenyl]-2-(trifluoromethyl)benzamide]	–	137 nM	–	1.33 nM
COc1cc(N2CC=C(c3cc(NC(=O)c4c[nH]c(=O)cc4C(F)(F)F)c(N4C[C@@H](C)N(C)[C@@H](C)C4)cc3F)CC2)ncn1 [Example 274, N-[4-fluoro-5-[1-(6-methoxypyrimidin-4-yl)-3,6-dihydro-2H-pyridin-4-yl]-2-[(3R,5S)-3,4,5-trimethylpiperazin-1-yl]phenyl]-6-oxo-4-(trifluoromethyl)-1H-pyridine-3-carboxamide]	–	75 nM	–	1.29 nM
C[C@@H]1CN(c2cc(F)c(C3=CCCN(c4ncccn4)C3)cc2NC(=O)c2c[nH]c(=O)cc2C(F)(F)F)C[C@H](C)N1C [Example 334, N-[4-fluoro-5-(1-pyrimidin-2-yl-3,6-dihydro-2H-pyridin-5-yl)-2-[(3R,5S)-3,4,5-trimethylpiperazin-1-yl]phenyl]-6-oxo-4-(trifluoromethyl)-1H-pyridine-3-carboxamide]	–	31 nM	–	0.095 nM
C[C@@H]1CN(c2cc(F)c(-c3ccnc(N4CCOCC4)n3)cc2NC(=O)c2c[nH]c(=O)cc2C(F)(F)F)C[C@H](C)N1C [Example 378, N-[4-fluoro-5-(2-morpholin-4-ylpyrimidin-4-yl)-2-[(3R,5S)-3,4,5-trimethylpiperazin-1-yl]phenyl]-6-oxo-4-(trifluoromethyl)-1H-pyridine-3-carboxamide]	–	20 nM	–	0.877 nM
C[C@@H]1CN(c2cc(F)c(C3=CCCN(c4ncc(CO)cn4)C3)cc2NC(=O)c2c[nH]c(=O)cc2C(F)(F)F)C[C@H](C)N1C [Example 413, N-[4-fluoro-5-[1-[5-(hydroxymethyl)pyrimidin-2-yl]-3,6-dihydro-2H-pyridin-5-yl]-2-[(3R,5S)-3,4,5-trimethylpiperazin-1-yl]phenyl]-6-oxo-4-(trifluoromethyl)-1H-pyridine-3-carboxamide]	0.302 nM	57 nM	–	–
C[C@@H]1CN(c2cc(F)c(C3=CCCN(c4ncc(CN(C)C)cn4)C3)cc2NC(=O)c2c[nH]c(=O)cc2C(F)(F)F)C[C@H](C)N1C [Example 414, N-[5-[1-[5-[(dimethylamino)methyl]pyrimidin-2-yl]-3,6-dihydro-2H-pyridin-5-yl]-4-fluoro-2-[(3R,5S)-3,4,5-trimethylpiperazin-1-yl]phenyl]-6-oxo-4-(trifluoromethyl)-1H-pyridine-3-carboxamide]	0.658 nM	8 nM	–	–
C[C@@H]1CN(c2cc(F)c(C3=CCCN(c4ncc(CN5CCOCC5)cn4)C3)cc2NC(=O)c2c[nH]c(=O)cc2C(F)(F)F)C[C@H](C)N1C [Example 415, N-[4-fluoro-5-[1-[5-(morpholin-4-ylmethyl)pyrimidin-2-yl]-3,6-dihydro-2H-pyridin-5-yl]-2-[(3R,5S)-3,4,5-trimethylpiperazin-1-yl]phenyl]-6-oxo-4-(trifluoromethyl)-1H-pyridine-3-carboxamide]	1.1 nM	17 nM	–	–
C[C@@H]1CN(c2ncc(-c3cc(NC(=O)c4ccc(F)cc4C(F)(F)F)c(N4CCN(C)[C@@H](C)C4)cc3F)cn2)CCO1 [Example 456, 4-fluoro-N-[4-fluoro-2-[(3S)-3,4-dimethylpiperazin-1-yl]-5-[2-[(2R)-2-methylmorpholin-4-yl]pyrimidin-5-yl]phenyl]-2-(trifluoromethyl)benzamide]	1.08 nM	89 nM	–	–

Reference: patent US11319299B2, “Substituted carboxamides as inhibitors of WDR5 protein-protein binding” (PROPELLON THERAPEUTICS INC., priority 2016, dated 2022)
